{"source": "ChEMBL document CHEMBL1130449", "about": "“Potent novel nonsteroidal androgen antagonists with a phthalimide skeleton” (1997)", "key": {"[1]": {"system": "SC-3", "assay": "Growth inhibition of androgen-dependent clonal cell line SC-3, derived from Shionogi carcinoma 115", "assay_type": "functional, Mus musculus", "design": "unit not given here"}, "[2]": {"system": "HL-60", "assay": "Production of TNF-alpha by HL-60 cells in the presence of 50 nM okadaic acid with 300 nM test compound"}, "[3]": {"system": "HL-60", "assay": "Production of TNF-alpha in HL-60 cells in the presence of 50 nM okadaic acid with 30 uM test compound"}}, "data": [{"smiles": "C[C@H](C1CCCCC1)N1C(=O)c2c(F)c(F)c(F)c(F)c2C1=O", "values": [{"measurement": "No. of cells", "setting": "[1]", "value": 5}, {"measurement": "Production", "setting": "[2]", "value": 65, "unit": "%"}]}, {"smiles": "C[C@H](c1ccccc1)N1C(=O)c2c(F)c(F)c(F)c(F)c2C1=O", "values": [{"measurement": "No. of cells", "setting": "[1]", "value": 3}, {"measurement": "Production", "setting": "[2]", "value": 70, "unit": "%"}]}, {"smiles": "CC(=O)C(CN1C(=O)c2ccccc2C1=O)C(C)=O", "values": [{"measurement": "No. of cells", "setting": "[1]", "value": 49}, {"measurement": "Production", "setting": "[3]", "value": 72, "unit": "%"}]}, {"smiles": "O=C1c2ccccc2C(=O)N1CC1Cc2ccccc2C1", "values": [{"measurement": "No. of cells", "setting": "[1]", "value": 56}, {"measurement": "Production", "setting": "[3]", "value": 50, "unit": "%"}]}, {"smiles": "C[C@@H](c1cccc2ccccc12)N1C(=O)c2c(F)c(F)c(F)c(F)c2C1=O", "values": [{"measurement": "No. of cells", "setting": "[1]", "value": 9}, {"measurement": "Production", "setting": "[2]", "value": 2, "unit": "%"}]}, {"smiles": "O=C1c2c(F)c(F)c(F)c(F)c2C(=O)N1CC1Cc2ccccc2C1", "values": [{"measurement": "No. of cells", "setting": "[1]", "value": 61}, {"measurement": "Production", "setting": "[2]", "value": 43, "unit": "%"}]}, {"smiles": "O=C1c2ccccc2C(=O)N1Cc1c(Cl)cccc1Cl", "values": [{"measurement": "No. of cells", "setting": "[1]", "value": 69}, {"measurement": "Production", "setting": "[3]", "value": 39, "unit": "%"}]}, {"smiles": "C[C@H](c1cccc2ccccc12)N1C(=O)c2c(F)c(F)c(F)c(F)c2C1=O", "values": [{"measurement": "No. of cells", "setting": "[1]", "value": 14}, {"measurement": "Production", "setting": "[2]", "value": 101, "unit": "%"}]}, {"smiles": "C[C@@H](c1ccccc1)N1C(=O)c2c(F)c(F)c(F)c(F)c2C1=O", "values": [{"measurement": "No. of cells", "setting": "[1]", "value": 16}, {"measurement": "Production", "setting": "[2]", "value": 2, "unit": "%"}]}, {"smiles": "CC(C)C(=O)Nc1ccc([N+](=O)[O-])c(C(F)(F)F)c1", "note": "[FLUTAMIDE]", "values": [{"measurement": "No. of cells", "setting": "[1]", "value": 66}, {"measurement": "Production", "setting": "[3]", "value": 103, "unit": "%"}]}, {"smiles": "O=C1c2ccccc2C(=O)N1CNc1ccccc1", "values": [{"measurement": "No. of cells", "setting": "[1]", "value": 91}, {"measurement": "Production", "setting": "[3]", "value": 73, "unit": "%"}]}, {"smiles": "O=C1c2c(F)c(F)c(F)c(F)c2C(=O)N1Cc1c(Cl)cccc1Cl", "values": [{"measurement": "No. of cells", "setting": "[1]", "value": 45}, {"measurement": "Production", "setting": "[2]", "value": 76, "unit": "%"}]}, {"smiles": "C[C@@H](C1CCCCC1)N1C(=O)c2c(F)c(F)c(F)c(F)c2C1=O", "values": [{"measurement": "No. of cells", "setting": "[1]", "value": 2}, {"measurement": "Production", "setting": "[2]", "value": 10, "unit": "%"}]}]}
